Assay results taken from ChEMBL document CHEMBL1201862, “PubChem BioAssay data set” (2004).
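Cultured in 96-well plates, cells were exposed to test compound for 48 hours across five concentrations. The concentration for 50% growth inhibition is given as GI50.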 Active and inactive are the calls of the source. No stated cut-off is given here; in the data, active = GI50 up to about 1.1 µM and inactive = higher.

Experiments:
Experiment in all cases: NCI-60 cell line screen, 48 h
SK-MEL-2 = test system: SK-MEL-2
IGROV-1 = test system: IGROV-1
DU-145 = test system: DU-145
NCI-H522 = test system: NCI-H522
COLO 205 = test system: COLO 205
NCI-H226 = test system: NCI-H226
Hs-578T = test system: Hs-578T
EKVX = test system: EKVX
HOP-62 = test system: HOP-62
OVCAR-4 = test system: OVCAR-4
RXF 393 = test system: RXF 393
SNB-75 = test system: SNB-75
TK-10 = test system: TK-10
K562 = test system: K562
A549 = test system: A549
MDA-MB-231 = test system: MDA-MB-231
KM12 = test system: KM12
SNB-19 = test system: SNB-19
OVCAR-3 = test system: OVCAR-3
HT-29 = test system: HT-29
T47D = test system: T47D
SF-539 = test system: SF-539
HOP-92 = test system: HOP-92
UACC-62 = test system: UACC-62
NCI-H23 = test system: NCI-H23
SK-MEL-28 = test system: SK-MEL-28
HCT-116 = test system: HCT-116
ACHN = test system: ACHN
PC-3 = test system: PC-3
Malme-3M = test system: Malme-3M
BT-549 = test system: BT-549
CCRF-CEM = test system: CCRF-CEM
MOLT-4 = test system: MOLT-4
SR = test system: SR
A498 = test system: A498
RPMI-8226 = test system: RPMI-8226
OVCAR-8 = test system: OVCAR-8
HCT-15 = test system: HCT-15
U-251 = test system: U-251
SW-620 = test system: SW-620
LOX IMVI = test system: LOX IMVI
OVCAR-5 = test system: OVCAR-5
786-0 = test system: 786-0
NCI-H460 = test system: NCI-H460
HL-60 = test system: HL-60
SK-MEL-5 = test system: SK-MEL-5
M14 = test system: M14
SF-268 = test system: SF-268
SK-OV-3 = test system: SK-OV-3
SN12C = test system: SN12C
NCI/ADR-RES = test system: NCI/ADR-RES
CAKI-1 = test system: CAKI-1
MCF7 = test system: MCF7
UACC-257 = test system: UACC-257
SF-295 = test system: SF-295
MDA-MB-435 = test system: MDA-MB-435
UO-31 = test system: UO-31
HCC 2998 = test system: HCC 2998

CN(C)CCCc1c2ccccc2nc2ccc(Cl)cc12
GI50 (SK-MEL-2): 19.9 µM (inactive) | GI50 (IGROV-1): 16.4 µM (inactive) | GI50 (DU-145): 21.4 µM (inactive) | GI50 (NCI-H522): 14.2 µM (inactive) | GI50 (COLO 205): 14.9 µM (inactive) | GI50 (NCI-H226): 24.2 µM (inactive) | GI50 (Hs-578T): 16.5 µM (inactive) | GI50 (EKVX): 17 µM (inactive) | GI50 (HOP-62): 14.5 µM (inactive) | GI50 (OVCAR-4): 18.6 µM (inactive) | GI50 (RXF 393): 14.1 µM (inactive) | GI50 (SNB-75): 15.5 µM (inactive) | GI50 (TK-10): 13.9 µM (inactive) | GI50 (K562): 19.1 µM (inactive) | GI50 (A549): 13.9 µM (inactive) | GI50 (MDA-MB-231): 16.6 µM (inactive) | GI50 (KM12): 17.9 µM (inactive) | GI50 (SNB-19): 12 µM (inactive) | GI50 (OVCAR-3): 24.8 µM (inactive) | GI50 (HT-29): 13.2 µM (inactive) | GI50 (T47D): 36.5 µM (inactive) | GI50 (SF-539): 16.6 µM (inactive) | GI50 (HOP-92): 9.53 µM (inactive) | GI50 (UACC-62): 18 µM (inactive) | GI50 (NCI-H23): 30.3 µM (inactive) | GI50 (SK-MEL-28): 18.3 µM (inactive) | GI50 (HCT-116): 10.9 µM (inactive) | GI50 (ACHN): 14.9 µM (inactive) | GI50 (PC-3): 16.8 µM (inactive) | GI50 (Malme-3M): 15.4 µM (inactive) | GI50 (BT-549): 18.6 µM (inactive) | GI50 (CCRF-CEM): 9.16 µM (inactive) | GI50 (MOLT-4): 17.9 µM (inactive) | GI50 (SR): 18.5 µM (inactive) | GI50 (A498): 19.2 µM (inactive) | GI50 (RPMI-8226): 21.3 µM (inactive) | GI50 (OVCAR-8): 15.9 µM (inactive) | GI50 (HCT-15): 30.5 µM | GI50 (U-251): 12.2 µM (inactive) | GI50 (SW-620): 12.9 µM (inactive) | GI50 (LOX IMVI): 14.2 µM (inactive) | GI50 (OVCAR-5): 15.2 µM (inactive) | GI50 (786-0): 11.7 µM (inactive) | GI50 (NCI-H460): 12.1 µM (inactive) | GI50 (HL-60): 16 µM (inactive) | GI50 (SK-MEL-5): 14.4 µM (inactive) | GI50 (M14): 14.2 µM (inactive) | GI50 (SF-268): 14.6 µM (inactive) | GI50 (SK-OV-3): 20.7 µM (inactive) | GI50 (SN12C): 10.3 µM (inactive) | GI50 (NCI/ADR-RES): 21.9 µM (inactive) | GI50 (CAKI-1): 15.2 µM (inactive) | GI50 (MCF7): 6.76 µM (inactive) | GI50 (UACC-257): 13.3 µM (inactive) | GI50 (SF-295): 16.2 µM (inactive) | GI50 (MDA-MB-435): 13.3 µM (inactive)

ClCCCc1ccccc1C1=NCCc2ccccc21
GI50 (SK-MEL-2): > 100 µM (inactive) | GI50 (IGROV-1): 98.9 µM (inactive) | GI50 (DU-145): > 100 µM (inactive) | GI50 (NCI-H522): 25.5 µM (inactive) | GI50 (COLO 205): 22 µM (inactive) | GI50 (NCI-H226): 55.1 µM (inactive) | GI50 (Hs-578T): 31.7 µM (inactive) | GI50 (EKVX): 80.9 µM (inactive) | GI50 (HOP-62): > 100 µM (inactive) | GI50 (OVCAR-4): 51.5 µM (inactive) | GI50 (RXF 393): > 100 µM (inactive) | GI50 (SNB-75): 17.5 µM (inactive) | GI50 (TK-10): > 100 µM (inactive) | GI50 (K562): 13.7 µM (inactive) | GI50 (A549): 54.2 µM (inactive) | GI50 (MDA-MB-231): > 100 µM (inactive) | GI50 (KM12): 40.9 µM (inactive) | GI50 (SNB-19): 36.8 µM (inactive) | GI50 (OVCAR-3): > 100 µM (inactive) | GI50 (HT-29): 28.5 µM (inactive) | GI50 (T47D): 31.3 µM (inactive) | GI50 (SF-539): > 100 µM (inactive) | GI50 (HOP-92): 81.1 µM (inactive) | GI50 (UACC-62): 56.2 µM (inactive) | GI50 (NCI-H23): 15.8 µM (inactive) | GI50 (SK-MEL-28): > 100 µM (inactive) | GI50 (HCT-116): 42.4 µM (inactive) | GI50 (ACHN): > 100 µM (inactive) | GI50 (PC-3): 36.5 µM (inactive) | GI50 (BT-549): 21 µM (inactive) | GI50 (CCRF-CEM): > 100 µM (inactive) | GI50 (MOLT-4): 82.4 µM (inactive) | GI50 (A498): > 100 µM (inactive) | GI50 (RPMI-8226): 3.21 µM (inactive) | GI50 (OVCAR-8): 24.9 µM (inactive) | GI50 (HCT-15): > 100 µM | GI50 (U-251): 25.8 µM (inactive) | GI50 (SW-620): > 100 µM (inactive) | GI50 (OVCAR-5): > 100 µM (inactive) | GI50 (786-0): > 100 µM (inactive) | GI50 (NCI-H460): 43.9 µM (inactive) | GI50 (HL-60): 23.5 µM (inactive) | GI50 (SK-MEL-5): 9.73 µM (inactive) | GI50 (M14): > 100 µM (inactive) | GI50 (UO-31): > 100 µM (inactive) | GI50 (SF-268): 49.7 µM (inactive) | GI50 (SK-OV-3): > 100 µM (inactive) | GI50 (SN12C): 48.4 µM (inactive) | GI50 (NCI/ADR-RES): > 100 µM (inactive) | GI50 (CAKI-1): > 100 µM (inactive) | GI50 (MCF7): 66.2 µM (inactive) | GI50 (UACC-257): 43.1 µM (inactive) | GI50 (SF-295): > 100 µM (inactive) | GI50 (HCC 2998): 40.3 µM (inactive) | GI50 (MDA-MB-435): 37.5 µM (inactive)
